# Test results from US7875614B2, “Phthalazinones” (Merck Patent GmbH, priority 2005, dated 2011).
# System: cells
# Test: cell cycle effect (G2/M)
# Type: cell-based
# Settings: cell line not stated; "Experiments show that"
smiles,measurement,value
N=C(N)c1ccc(OCCCCCOc2ccc(C(=N)N)cc2)cc1 [pentamidine],effect on cell cycle,maintain cells in the G2/M cell cycle
